Data: ChEMBL document CHEMBL1201862, “PubChem BioAssay data set” (2004)
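These data come from cells grown in 96-well plates and exposed to compound for 48 hours at five concentrations. At the GI50, growth is halved.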 Activity calls are given as the source filed them. No stated cut-off is given here; in the data, active = GI50 up to about 1.1 µM and inactive = higher.

What was measured:
Test in all cases: NCI-60 cell line screen, 48 h
[1] = test system: SK-MEL-5
[2] = test system: OVCAR-4
[3] = test system: ACHN
[4] = test system: CCRF-CEM
[5] = test system: MCF7
[6] = test system: EKVX
[7] = test system: NCI-H23
[8] = test system: OVCAR-8
[9] = test system: U-251
[10] = test system: SN12C
[11] = test system: SW-620
[12] = test system: MOLT-4
[13] = test system: SK-MEL-2
[14] = test system: SF-539
[15] = test system: HCC 2998
[16] = test system: M14
[17] = test system: IGROV-1
[18] = test system: SK-MEL-28
[19] = test system: MDA-N
[20] = test system: T47D
[21] = test system: UO-31
[22] = test system: PC-3
[23] = test system: HL-60
[24] = test system: HCT-15
[25] = test system: HOP-62
[26] = test system: UACC-62
[27] = test system: HT-29
[28] = test system: A498
[29] = test system: SF-295
[30] = test system: BT-549
[31] = test system: OVCAR-5
[32] = test system: KM12
[33] = test system: CAKI-1
[34] = test system: LOX IMVI
[35] = test system: MDA-MB-231
[36] = test system: SNB-19
[37] = test system: NCI-H226
[38] = test system: NCI/ADR-RES
[39] = test system: A549
[40] = test system: COLO 205
[41] = test system: HOP-92
[42] = test system: UACC-257
[43] = test system: OVCAR-3
[44] = test system: SK-OV-3
[45] = test system: HCT-116
[46] = test system: 786-0
[47] = test system: MDA-MB-435
[48] = test system: TK-10
[49] = test system: DU-145
[50] = test system: NCI-H460
[51] = test system: RPMI-8226
[52] = test system: K562
[53] = test system: RXF 393
[54] = test system: SF-268
[55] = test system: NCI-H522
[56] = test system: Malme-3M
[57] = test system: SNB-75
[58] = test system: SR

## COc1cccc(CN(C(=O)/C=C\Sc2ccccc2)C(C)(C)C)c1
[1]
  GI50: 49 µM (inactive)
[2]
  GI50: 96.8 µM (inactive)
[3]
  GI50: > 100 µM (inactive)
[4]
  GI50: 0.435 µM (active)
[5]
  GI50: 81.3 µM (inactive)
[6]
  GI50: 90.6 µM (inactive)
[7]
  GI50: > 100 µM (inactive)
[8]
  GI50: > 100 µM (inactive)
[9]
  GI50: > 100 µM (inactive)
[10]
  GI50: > 100 µM (inactive)
[11]
  GI50: > 100 µM (inactive)
[12]
  GI50: 18.1 µM (inactive)
[13]
  GI50: 54.8 µM (inactive)
[14]
  GI50: > 100 µM (inactive)
[15]
  GI50: > 100 µM (inactive)
[16]
  GI50: 84.7 µM (inactive)
[17]
  GI50: 57.1 µM (inactive)
[18]
  GI50: > 100 µM (inactive)
[19]
  GI50: 74 µM (inactive)
[20]
  GI50: 17.6 µM (inactive)
[21]
  GI50: 48.3 µM (inactive)
[22]
  GI50: 33 µM (inactive)
[23]
  GI50: 20.5 µM (inactive)
[24]
  GI50: 44.6 µM
[25]
  GI50: > 100 µM (inactive)
[26]
  GI50: > 100 µM (inactive)
[27]
  GI50: 31.1 µM (inactive)
[28]
  GI50: > 100 µM (inactive)
[29]
  GI50: > 100 µM (inactive)
[30]
  GI50: 90.2 µM (inactive)
[31]
  GI50: > 100 µM (inactive)
[32]
  GI50: > 100 µM (inactive)
[33]
  GI50: > 100 µM (inactive)
[34]
  GI50: 32.5 µM (inactive)
[35]
  GI50: > 100 µM (inactive)
[36]
  GI50: > 100 µM (inactive)
[37]
  GI50: > 100 µM (inactive)
[38]
  GI50: 58.9 µM (inactive)
[39]
  GI50: 43.8 µM (inactive)
[40]
  GI50: 63.7 µM (inactive)
[41]
  GI50: 2.61 µM (inactive)
[42]
  GI50: 41 µM (inactive)
[43]
  GI50: 52.5 µM (inactive)
[44]
  GI50: > 100 µM (inactive)
[45]
  GI50: 33 µM (inactive)
[46]
  GI50: > 100 µM (inactive)
[47]
  GI50: 86.5 µM (inactive)
[48]
  GI50: > 100 µM (inactive)
[49]
  GI50: > 100 µM (inactive)

## CN(C)S(=O)(=O)n1ccnc1
[1]
  GI50: > 100 µM (inactive)
[2]
  GI50: > 100 µM (inactive)
[3]
  GI50: > 100 µM (inactive)
[5]
  GI50: > 100 µM (inactive)
[6]
  GI50: > 100 µM (inactive)
[7]
  GI50: > 100 µM (inactive)
[50]
  GI50: > 100 µM (inactive)
[9]
  GI50: > 100 µM (inactive)
[10]
  GI50: > 100 µM (inactive)
[11]
  GI50: > 100 µM (inactive)
[12]
  GI50: > 100 µM (inactive)
[13]
  GI50: > 100 µM (inactive)
[14]
  GI50: > 100 µM (inactive)
[15]
  GI50: > 100 µM (inactive)
[16]
  GI50: > 100 µM (inactive)
[17]
  GI50: > 100 µM (inactive)
[18]
  GI50: > 100 µM (inactive)
[19]
  GI50: > 100 µM (inactive)
[20]
  GI50: > 100 µM (inactive)
[21]
  GI50: > 100 µM (inactive)
[22]
  GI50: > 100 µM (inactive)
[24]
  GI50: > 100 µM
[25]
  GI50: > 100 µM (inactive)
[51]
  GI50: > 100 µM (inactive)
[28]
  GI50: > 100 µM (inactive)
[29]
  GI50: > 100 µM (inactive)
[30]
  GI50: > 100 µM (inactive)
[31]
  GI50: > 100 µM (inactive)
[32]
  GI50: > 100 µM (inactive)
[52]
  GI50: > 100 µM (inactive)
[33]
  GI50: > 100 µM (inactive)
[53]
  GI50: > 100 µM (inactive)
[34]
  GI50: > 100 µM (inactive)
[35]
  GI50: > 100 µM (inactive)
[36]
  GI50: > 100 µM (inactive)
[37]
  GI50: > 100 µM (inactive)
[38]
  GI50: > 100 µM (inactive)
[39]
  GI50: > 100 µM (inactive)
[40]
  GI50: > 100 µM (inactive)
[41]
  GI50: > 100 µM (inactive)
[42]
  GI50: > 100 µM (inactive)
[54]
  GI50: > 100 µM (inactive)
[43]
  GI50: > 100 µM (inactive)
[44]
  GI50: > 100 µM (inactive)
[55]
  GI50: > 100 µM (inactive)
[45]
  GI50: > 100 µM (inactive)
[46]
  GI50: > 100 µM (inactive)
[47]
  GI50: > 100 µM (inactive)
[48]
  GI50: > 100 µM (inactive)
[56]
  GI50: > 100 µM (inactive)
[57]
  GI50: > 100 µM (inactive)

## O=C1/C(=C\c2cccc(Oc3ccccc3)c2)S(=O)(=O)C(c2ccccc2)N1c1ccccc1Cl (configuration not stated)
[1]
  GI50: 17.4 µM (inactive)
[2]
  GI50: 15.4 µM (inactive)
[3]
  GI50: 27.8 µM (inactive)
[4]
  GI50: 19.1 µM (inactive)
[5]
  GI50: 21.9 µM (inactive)
[6]
  GI50: 22.3 µM (inactive)
[7]
  GI50: 24.4 µM (inactive)
[8]
  GI50: 23.4 µM (inactive)
[50]
  GI50: 32.6 µM (inactive)
[9]
  GI50: 27.9 µM (inactive)
[10]
  GI50: 23 µM (inactive)
[11]
  GI50: 30.2 µM (inactive)
[12]
  GI50: 15.1 µM (inactive)
[13]
  GI50: 26 µM (inactive)
[14]
  GI50: 5.83 µM (inactive)
[15]
  GI50: 49.3 µM (inactive)
[16]
  GI50: 28.6 µM (inactive)
[58]
  GI50: 17.9 µM (inactive)
[17]
  GI50: 17.1 µM (inactive)
[18]
  GI50: 38.9 µM (inactive)
[19]
  GI50: 21.2 µM (inactive)
[20]
  GI50: 16.3 µM (inactive)
[21]
  GI50: 19.7 µM (inactive)
[22]
  GI50: 29 µM (inactive)
[23]
  GI50: 13.9 µM (inactive)
[24]
  GI50: 31.2 µM
[25]
  GI50: 26.4 µM (inactive)
[26]
  GI50: 25.2 µM (inactive)
[51]
  GI50: 16.3 µM (inactive)
[27]
  GI50: 22.6 µM (inactive)
[28]
  GI50: 45.6 µM (inactive)
[29]
  GI50: 30.8 µM (inactive)
[30]
  GI50: 43.1 µM (inactive)
[31]
  GI50: 33.7 µM (inactive)
[32]
  GI50: 27 µM (inactive)
[52]
  GI50: 14.5 µM (inactive)
[33]
  GI50: 32.6 µM (inactive)
[53]
  GI50: 29 µM (inactive)
[34]
  GI50: 29.2 µM (inactive)
[35]
  GI50: 28.2 µM (inactive)
[36]
  GI50: 16.1 µM (inactive)
[37]
  GI50: 29.6 µM (inactive)
[38]
  GI50: 29.4 µM (inactive)
[39]
  GI50: 31.6 µM (inactive)
[40]
  GI50: 17.6 µM (inactive)
[41]
  GI50: 17.9 µM (inactive)
[42]
  GI50: 28.6 µM (inactive)
[43]
  GI50: 20.9 µM (inactive)
[44]
  GI50: 34.2 µM (inactive)
[55]
  GI50: 18.4 µM (inactive)
[45]
  GI50: 15.4 µM (inactive)
[46]
  GI50: 29.3 µM (inactive)
[47]
  GI50: 27.7 µM (inactive)
[48]
  GI50: 77.1 µM (inactive)
[56]
  GI50: 32.6 µM (inactive)
[49]
  GI50: 36.1 µM (inactive)
[57]
  GI50: 20 µM (inactive)
